In patent US20220193006A1, “COMPOSITIONS FOR EFFECTIVE MANAGEMENT OF FIBROBLAST-LIKE SYNOVIOCYTES MEDIATED RHEUMATOID ARTHRITIS” (priority 2020, published 2022):

Key:
TNF-α = experiment: Inflammatory markers, RT-PCR expression study in TNF-α induced FLS; format: cell-based; conditions: sample 10 μg/mL; FLS induced with 10 ng/ml rat TNF-α, 6 hrs; Control = 1, Induced 7.93
Protocol: (§1) FLS cells (8×10^4 cells/well) were seeded in 24-well plates and incubated overnight at 37° C. under 5% CO2. […] RT-PCR expression study: After 6 hrs of incubation, total cellular RNA from untreated and treated cells were isolated using Trizol Reagent® (Ambion, Life Technologies), according to the manufacturer's instructions, followed by RNase-free DNase I treatment (ThermoFisher Scientific) to remove any genomic DNA. Messenger RNA quality and concentration were analyzed spectrophotometrically (NanoDrop Lite, ThermoFisher Scientific). One microgram of total RNA was reverse transcribed into cDNA using Revert-aid First Strand cDNA synthesis kit (ThermoFisher Scientific), according to the manufacturer's instructions, and stored at −80° C. until use. Then 20 μl of the reaction mixture was subjected to PCR using SYBR green qPCR master mix for amplification of cDNAs using specifically designed primers procured from Eurofins India, as an internal control, the house keeping gene § actin was co-amplified with each reaction (Table 2). PCR was carried out in Light cycler 96 (Roche Life Science) and PCR conditions for genes were initial denaturation at 95° C. for 10 min followed by 35 cycles consisting of denaturation at 95° C. for 30 seconds, annealing of primers at 60° C. for 30 seconds, extension at 72° C. for 30 seconds and final cooling at 72° C. for 30 seconds (Table 1).

CCL-5 = experiment: as above; format: cell-based; conditions: sample 10 μg/mL; FLS induced with 10 ng/ml rat TNF-α, 6 hrs; Control = 1, Induced 7.16
Protocol: as §1

Cathepsin = experiment: as above; format: cell-based; conditions: sample 10 μg/mL; FLS induced with 10 ng/ml rat TNF-α, 6 hrs; Control = 1, Induced 3.86
Protocol: as §1

MMP-3 = experiment: as above; format: cell-based; conditions: sample 10 μg/mL; FLS induced with 10 ng/ml rat TNF-α, 6 hrs; Control = 1, Induced 5.14
Protocol: as §1

IFN-γ = experiment: as above; format: cell-based; conditions: sample 10 μg/mL; FLS induced with 10 ng/ml rat TNF-α, 6 hrs; Control = 1, Induced 5.7
Protocol: as §1

[1] = system: collagen-induced arthritis (CIA); experiment: Collagen-induced arthritis study, arthritic score; format: in vivo, rat; conditions: positive control, 10 mg/kg; RA control is 3.5; scale 0-4; FIG. 32
Description: The […] (Table 4) collagen-induced arthritis (CIA) is a widely studied autoimmune model of rheumatoid arthritis. In this model, autoimmune arthritis is induced by immunization with type II collagen (CII) emulsified in complete Freund's adjuvant. These animals develop an autoimmune-mediated polyarthritis that shares several clinical, histological, and immunological features with the human autoimmune disease rheumatoid arthritis. The immune response to CII is characterized by both the stimulation of collagen-specific T cells and the production of high titers of antibody specific for both the immunogen (heterologous CII) and the autoantigen (mouse or rat CII).
Arthritis induced by administering type-2 collagen (chicken sternal cartilage, Sigma catalog no: C9301) which will be emulsified with incomplete Freund's adjuvant (FIA) at 1:1 ratio. On Day 0, Rats were intradermally injected with 200 μL (200 μg/animal) of collagen-FIA emulsion at the base of the tail (First Immunization). For booster injection the emulsion was prepared same as above and injected with 100 μL (100 μg/animal) of collagen-FIA emulsion given on day 7. Test sample administered from day 0 to day 20. […]

[2] = system: Th17 and Treg cells in spleen; experiment: Treg and Th17 analysis in spleen (flow cytometry); format: in vivo, rat; conditions: spleen of CIA rats; celecoxib control; RA control at 3.5; FIG. 35
Protocol: Spleen was obtained from collagen induced arthritis rats under sterile conditions for the lymphocyte isolation. The spleen was washed twice with PBS containing 100 μg/ml streptomycin and 100 U/ml penicillin and cut into small pieces with microsurgery scissors, homogenized with plunger end of the syringe and filtered using a 100 μm mesh strainer. The filtrate was centrifuged for 5 min at 1200 rpm, washed 1-2 times with PBS, after which 1×10^6 cells/ml were suspended in RPMI media supplemented with 10% FBS. The imbalance is effected by reducing Th17 cells and increasing T-cell (Treg) (FIGS. 33-35) with the ratio of Th17/Treg preferably as 1, or more preferably between 0-1 compared to RA control at 3.5 (FIG. 35).
After the stimulation, cells were collected and 2×10^5 cells were aliquoted into different tubes for evaluating Th17 and Treg population. The antibody dilutions used for the analysis were as recommended by the respective manufacturer. To evaluate Th17 population, cells were initially stained with FITC Mouse Anti-Rat CD3 (559975, BD pharmingen) and APC Mouse Anti-Rat CD4 (550057, BD pharmingen) antibodies. […] FCM was performed on a BD FACSCelesta system (BD Biosciences, Franklin Lakes, N.J., USA) and analyzed using FlowJo software.

[3] = system: Fibroblast-like synoviocytes (FLS); experiment: WST-1 proliferation assay; format: cell-based, rat; conditions: 20 μg/mL, 72 hours; FIG. 5
Protocol: FLS were isolated from synovial tissues by enzymatic digestion. In short, the tissues were separated into 1-mm^3 blocks with microsurgery scissors. After which the tissues were incubated with 0.1% collagenase type II enzyme in DMEM supplemented with 10% FBS for enzymatic digestion at 37° C. for 45 min in an orbital shaker incubator (200 rpm).
After the incubation time, the tubes were vortexed vigorously for 1-2 min to release the cells and filtered using a 100 μm mesh strainer. The filtrate was centrifuged for 5 min at 1200 rpm, the cells were resuspended in DMEM supplemented with 10% FBS and 100 μg/ml streptomycin and 100 U/ml penicillin and cultured in a humidified incubator at 37° C. under 5% CO2.
WST-1 assay was used to measure the effect of different samples on FLS proliferation. FLS were seeded in 96-well plates at a density of 5×10^3 cells/well and incubated overnight at 37° C. under 5% CO2. After the treatment period, 100 μl WST-1 reagent (5015944001, Sigma, USA) diluted 1:10 in serum-free DMEM culture media was added to each well, and incubated at 37° C. under 5% CO2 for 2 h. The absorbance was measured at 450 nm with a reference wavelength of 610 nm.

Bax/Bcl-2 = experiment: Apoptosis analysis, Bax/Bcl-2 RT-PCR expression in FLS; format: cell-based, rat; conditions: 24 h treatment; compared to the control; FIG. 19
Protocol: FLS apoptosis was assessed with RT-PCR expression study. In short, FLS cells (8×10^4 cells/well) were seeded in 24-well plates and incubated overnight at 37° C. under 5% CO2. After synchronization in serum-free medium for 24 h, cells were treated with or without the presence of samples in DMEM 10% FBS for 24 h. After the treatment period, the cells were collected, total cellular RNA was isolated and processed for RT-PCR analysis (Table 3) as mentioned before.

| Compound | TNF-α (inflammatory marker expression) (TNF-α) | CCL-5 (inflammatory marker expression) (CCL-5) | Cathepsin (inflammatory marker expression) (Cathepsin) | MMP-3 (inflammatory marker expression) (MMP-3) | IFN-γ (inflammatory marker expression) (IFN-γ) | arthritis score [1] | ratio of Th17/Treg [2] | inhibition of FLS proliferation, trend among curcuminoid analogues [3] | Bax/Bcl-2 ratio (pro-apoptosis), ranking (Bax/Bcl-2) |
| --- | --- | --- | --- | --- | --- | --- | --- | --- | --- |
| COc1cc(/C=C/C(O)=C/C(=O)/C=C/c2ccc(O)cc2)ccc1O [DMC, demethoxycurcumin] | 3.57 ± 1.77 | 7.03 ± 3.03 | 3.69 ± 0.14 | 4.91 ± 0.41 | 4.43 ± 0.15 | – | – | – | – |
| O=C(/C=C/c1ccc(O)cc1)CC(=O)/C=C/c1ccc(O)cc1 [BDMC, bisdemethoxycurcumin] | 3.20 ± 2.1 | 4.07 ± 0.05 | 3.36 ± 0.37 | 6.07 ± 0.05 | 4.57 ± 0.11 | – | – | – | – |
| Cc1ccc(-c2cc(C(F)(F)F)nn2-c2ccc(S(N)(=O)=O)cc2)cc1 [celecoxib] | – | – | – | – | – | 1 | 0.5 | – | – |
| COc1cc(/C=C/C(=O)CC(=O)/C=C/c2ccc(O)c(OC)c2)ccc1O [Curcumin, curcumin] | 3.93 ± 0.84 | 3.01 ± 0.04 | 2.70 ± 0.14 | 3.98 ± 0.48 | 2.7 ± 0.19 | – | – | BDMC>curcumin>DMC | BDMC>DMC>curcumin |
